Publication PMC6148290, “Endogenous metabolites of vitamin E limit inflammation by targeting 5-lipoxygenase” (Nature Communications, 2018)

Tests used:
12-LO = target: T1, 12-LO (Homo sapiens, UniProt P18054); experiment: 12-LO product formation in A23187/AA-activated PMNL; assay type: cell-based; details: at 3 µM; mean ± s.e.m., n = 3; n.i. no inhibition
T1 construct: 12-HETE (12-LO product from platelets in PMNL preparations); endogenous in cells; host or cells: platelets contaminating human PMNL preparations
T1 sequence (P18054 1-663): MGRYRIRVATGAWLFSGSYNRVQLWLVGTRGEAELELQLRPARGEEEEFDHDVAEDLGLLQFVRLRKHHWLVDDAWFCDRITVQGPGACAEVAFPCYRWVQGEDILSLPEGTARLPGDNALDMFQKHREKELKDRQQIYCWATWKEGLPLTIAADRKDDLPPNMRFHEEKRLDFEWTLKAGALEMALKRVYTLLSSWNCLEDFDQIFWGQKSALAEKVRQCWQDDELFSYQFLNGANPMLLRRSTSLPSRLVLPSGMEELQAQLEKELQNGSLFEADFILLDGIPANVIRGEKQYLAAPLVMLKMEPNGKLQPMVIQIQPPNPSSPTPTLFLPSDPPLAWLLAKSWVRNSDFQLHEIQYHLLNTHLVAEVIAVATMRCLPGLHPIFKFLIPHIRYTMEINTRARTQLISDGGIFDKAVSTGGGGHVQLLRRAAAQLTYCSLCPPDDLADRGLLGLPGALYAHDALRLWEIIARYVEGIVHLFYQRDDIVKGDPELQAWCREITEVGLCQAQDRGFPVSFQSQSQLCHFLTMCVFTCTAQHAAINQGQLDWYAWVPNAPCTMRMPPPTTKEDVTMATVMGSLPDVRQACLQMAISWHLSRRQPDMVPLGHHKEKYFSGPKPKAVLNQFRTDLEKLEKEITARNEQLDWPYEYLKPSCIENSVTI
Procedure: (§1) Cells were washed and medium was exchanged. Freshly isolated PMNL (1 × 10^7) and stably transfected HEK-293 (1 × 10^6) cells were suspended in PBS pH 7.4 containing 1 mg/ml glucose and 1 mM CaCl2. […] A23187- and A23187/AA-treated PMNL and A23187/AA-treated HEK-293 (5-LO_wt), HEK-293 (5-LO_3W) and HEK-293 (5-LO_Arg101Asp) cells produced 135 ± 21, 636 ± 112, 300 ± 59, 133 ± 29, 55 ± 9 ng 5-LO products, respectively. PMNL synthesized 29 ± 6 ng 12-HETE and 97 ± 23 ng 15-HETE when challenged with A23187/AA. 5-LO products from monocytes were analyzed by UPLC-MS/MS.

15-LO = 15-LO product formation in A23187/AA-activated PMNL; assay type: cell-based, human; details: at 3 µM; mean ± s.e.m., n = 3; n.i. no inhibition
Procedure: as §1

[1] = test system: peripheral blood mononuclear cells; experiment: Cell viability of PBMC (MTT assay); assay type: cell-based, human; details: at 1 and 10 µM (one entry for both); 24 h; n.i. no inhibition
Procedure: The formazan product was solubilized with SDS (10% in 20 mM HCl), and absorbance was measured at 570 nm using a Multiskan Spectrum microplate reader (Thermo Fisher Scientific).

DPPH radical scavenging = details: DPPH
Procedure: Compounds were incubated with 2,2-diphenyl-1-picrylhydrazyl (DPPH, Sigma-Aldrich; […]) in ethanol for 30 min. Absorbance was measured at 520 nm using a Multiskan Spectrum Microplate Reader (Thermo Fisher Scientific)[35]. Ascorbic acid (Sigma-Aldrich; 50 µM), used as control, scavenged DPPH radicals by 82.4 ± 1.9%.

intracellular Ca^2+ = experiment: Intracellular Ca2+ in fMLP-stimulated PMNL; assay type: cell-based, human
Procedure: PMNL (1 × 10^6) were incubated with Fura-2/AM (Thermo Fisher Scientific; 2 nmol) for 45 min at 37 °C, washed, resuspended in PBS pH 7.4 plus 1 mg/ml glucose and transferred to fluorescene 96-well microplates (Greiner). After pre-incubation with compounds for 10 min, 1 mM Ca^2+ was added, and cells were stimulated with fMLP (1 µM) for another 10 min. Intracellular Ca^2+ concentrations were determined using a thermally (37 °C) controlled NOVOstar fluorescence microplate reader [BMG Labtech, Ortenberg, Germany; emission at 510 nm, excitation at 340 nm (Ca^2+-bound Fura-2) and 380 nm (free Fura-2)][17]. The maximal fluorescence signal was recorded after lysis of […] with Triton X-100, and the minimal fluorescence was assessed by adding 20 mM EDTA to chelate Ca^2+. The difference in the signal ratio obtained with Triton X-100 and Triton X-100 plus 20 mM EDTA was set to 100% for each experiment.

[2] = Water solubility (statement); assay type: physicochemical; details: authors' statement in reply to reviewer

C/C(=C\CC/C(C)=C/CC[C@]1(C)CCc2cc(O)cc(C)c2O1)CC/C=C(\C)C(=O)O [4h, garcinoic acid]
12-LO product formation/PMNL, residual activity (12-LO): 75.1 ± 12.1 % of control
15-LO product formation/PMNL, residual activity (15-LO): 128.6 ± 42.3 % of control
Cell viability/peripheral blood mononuclear cells, residual viability [1]: n.i.
radical scavenging as measure for antioxidant activity (DPPH radical scavenging): only evident at micromolar
concentration at which intracellular Ca^2+-influx was significantly reduced (intracellular Ca^2+): ≥ 1 µM
water solubility [2]: poor
